The structures appear in SMILES notation. Values joined by “and” are separate entries in the source; they are usually repeats but may differ in a detail not shown here. Identical values can stand only once. Toxic doses and inconclusive results are not listed.

Our source for the T/C values is PubChem BioAssay AID292 (DTP/NCI, 2004).

The assay concerns B6C3F1 mice, ip Sarcoma M5076, median survival T/C. Briefly: NCI In Vivo Anticancer Drug Screen. Data for tumor model Sarcoma M5076 (intraperitoneal) in B6C3F1 mice. To be noted: endpoint: median survival time, schedule: Q04DX004 (ip), higher = longer survival. In a few lines: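 Survival measured in treated (T) and vehicle control (C) mice with transplantable tumour; result given as T divided by C.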

Where [1] appears, read: dose: 25.0 mg/kg/injection, vehicle: saline with Tween-80.

Turning to `N#Cc1c(-c2ccc(F)cc2)c(-c2ccc(F)cc2)nn(CCO)c1=O`, the T/C (dose: 12.5 mg/kg/injection, vehicle: distilled water + Tween-80) was 96 % of control and 106 % of control; the T/C (dose: 25.0 mg/kg/injection, vehicle: distilled water + Tween-80) was 101 % of control and 102 % of control; the T/C (dose: 50.0 mg/kg/injection, vehicle: distilled water + Tween-80) was 106 % of control and 111 % of control; the T/C (dose: 72.0 mg/kg/injection, vehicle: distilled water + Tween-80) was 103 % of control; the T/C (dose: 100.0 mg/kg/injection, vehicle: distilled water + Tween-80) was 120 % of control and 124 % of control; the T/C (dose: 120.0 mg/kg/injection, vehicle: distilled water + Tween-80) was 115 % of control. Besides, the T/C is 123 % of control (dose: 200.0 mg/kg/injection, vehicle: distilled water + Tween-80); 150 % of control (dose: 333.0 mg/kg/injection, vehicle: distilled water + Tween-80); 153 % of control (dose: 555.0 mg/kg/injection, vehicle: distilled water + Tween-80).

For `NC(C(=O)O)C1=CCCC1` (stereo not given), the T/C is, setting by setting: under setting [1], 102 % of control; (dose: 50.0 mg/kg/injection, vehicle: saline with Tween-80) 99 % of control; (dose: 100.0 mg/kg/injection, vehicle: saline with Tween-80) 98 % of control; (dose: 200.0 mg/kg/injection, vehicle: saline with Tween-80) 98 % of control; (dose: 400.0 mg/kg/injection, vehicle: saline with Tween-80) 87 % of control.

Take `CN=C(N)N/N=C(\C)c1ccc2sc3ccc(/C(C)=N/NC(N)=NC)cc3c2c1`: the T/C under setting [1] was 113 % of control.

For `C=COC(=O)C(Cc1ccccc1)NC(=O)OCc1ccccc1` (stereo not given), the T/C by setting is: (dose: 75.0 mg/kg/injection, vehicle: saline with Tween-80) 91 % of control; (dose: 150.0 mg/kg/injection, vehicle: saline with Tween-80) 111 % of control; (dose: 300.0 mg/kg/injection, vehicle: saline with Tween-80) 113 % of control; (dose: 600.0 mg/kg/injection, vehicle: saline with Tween-80) 91 % of control; (dose: 1200.0 mg/kg/injection, vehicle: saline with Tween-80) 88 % of control.
